In patent US9321756B2, “Azole compounds as PIM inhibitors” (priority 2011, dated 2016):
Like-named read-outs stand apart in the source and are kept apart here.

What was measured:
[1] = target: full length recombinant Pim-1 (Homo sapiens (Human), UniProt P11309); assay: Pim enzyme assay (HTRF, phosphorylation of biotinylated-BAD (S112) peptide), Pim-1; type: biochemical
[2] = target: full length recombinant Pim-2 (Homo sapiens (Human), UniProt Q9P1W9); assay: Pim enzyme assay (HTRF, phosphorylation of biotinylated-BAD (S112) peptide), Pim-2; type: biochemical; details: read-out: Pim2_IC50
[3] = Pim-1 enzyme assay, read-out: Pim_1_IC50
[4] = HTRF, 10-point curve, high dose 1 uM, 45 min at RT
[5] = HTRF, 10-point curve, high dose 1 uM, 2 h at RT, read-out: Pim_1_IC50

Chain of full length recombinant Pim-2 (Q9P1W9 whole entry): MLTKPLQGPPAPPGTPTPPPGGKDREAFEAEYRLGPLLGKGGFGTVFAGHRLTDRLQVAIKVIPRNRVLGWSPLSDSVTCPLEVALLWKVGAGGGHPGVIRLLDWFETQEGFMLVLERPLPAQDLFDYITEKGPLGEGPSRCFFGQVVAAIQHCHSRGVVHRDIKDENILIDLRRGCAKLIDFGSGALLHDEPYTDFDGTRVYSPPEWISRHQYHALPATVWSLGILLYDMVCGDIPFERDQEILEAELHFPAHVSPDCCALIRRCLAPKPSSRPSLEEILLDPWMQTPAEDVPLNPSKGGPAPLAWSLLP
Chain of full length recombinant Pim-1 (P11309 whole entry): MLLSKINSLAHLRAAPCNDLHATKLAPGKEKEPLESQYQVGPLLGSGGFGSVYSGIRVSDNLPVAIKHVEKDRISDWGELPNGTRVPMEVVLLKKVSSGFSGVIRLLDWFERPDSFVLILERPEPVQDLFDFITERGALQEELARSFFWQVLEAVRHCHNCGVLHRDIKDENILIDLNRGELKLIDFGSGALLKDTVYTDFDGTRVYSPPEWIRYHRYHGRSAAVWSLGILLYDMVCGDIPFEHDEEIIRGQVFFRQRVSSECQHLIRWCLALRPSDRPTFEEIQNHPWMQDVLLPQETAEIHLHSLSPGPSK

IC50 [1, 3] [µM] | IC50 ([2]; Pim-2 enzyme assay) [µM] | IC50 [1, 5] [µM] | SMILES | also measured
0.00253 |  |  | CC(C)Nc1nnc(-c2ccc3[nH]cc(-c4nc(C(N)=O)cc(C5CC5)n4)c3c2)o1 [Example 48, 6-cyclopropyl-2-(5-(5-(isopropylamino)-1,3,4-oxadiazol-2-yl)-1H-indol-3-yl)pyrimidine-4-carboxamide] | 
 |  | 0.0159 | COc1nc(-c2c[nH]c3ccc(-c4nnc(NC(C)C)o4)cc23)cc(=O)[nH]1 [Example 298, 2-methoxy-6-(5-(5-((1-methylethyl)amino)-1,3,4-oxadiazol-2-yl)-1H-indol-3-yl)-4(3H)-pyrimidinone] | IC50 [2, 4]: 0.0244 µM
0.364 | 0.45 |  | Fc1cccc(Nc2nnc(-c3ccc4[nH]cc(-c5nccc(C6CC6)n5)c4c3)o2)c1 [Example 269, 5-(3-(4-cyclopropyl-2-pyrimidinyl)-1H-indol-5-yl)-N-(3-fluorophenyl)-1,3,4-oxadiazol-2-amine] | 
 |  | 0.291 | CC(C)Nc1nnc(-c2ccc3[nH]cc(-c4cc(C(=O)N(C)C)ccc4F)c3c2)o1 [Example 302, 4-fluoro-N,N-dimethyl-3-(5-(5-((1-methylethyl)amino)-1,3,4-oxadiazol-2-yl)-1H-indol-3-yl)benzamide] | 
 | 0.051 |  | CC(C)Cc1nnc(-c2ccc3[nH]cc(-c4cncc(C5CC5)n4)c3c2)o1 [Example 265, 3-(6-cyclopropyl-2-pyrazinyl)-5-(5-(2-methylpropyl)-1,3,4-oxadiazol-2-yl)-1H-indole] | IC50 [1]: 0.0286 µM
 |  | > 1 | CC(C)Nc1nnc(-c2ccc3[nH]cc(-c4cncc(C(=O)N(C)C)c4)c3c2)o1 [Example 296, N,N-dimethyl-5-(5-(5-((1-methylethyl)amino)-1,3,4-oxadiazol-2-yl)-1H-indol-3-yl)-3-pyridinecarboxamide] | IC50 [2, 4]: > 1 µM
 |  | 0.0392 | COc1nccc(-c2c[nH]c3ccc(-c4nnc(NC(C)C)o4)cc23)n1 [Example 297, 5-(3-(2-methoxy-4-pyrimidinyl)-1H-indol-5-yl)-N-(1-methylethyl)-1,3,4-oxadiazol-2-amine] | IC50 [2, 4]: 0.0738 µM
0.0304 | 0.0369 |  | CCOc1nc(-c2c[nH]c3ccc(-c4nnc(NC(C)C)o4)cc23)ncc1F [Example 259, 5-(3-(4-ethoxy-5-fluoro-2-pyrimidinyl)-1H-indol-5-yl)-N-(1-methylethyl)-1,3,4-oxadiazol-2-amine] | 
 |  | 0.259 | CC(C)Nc1nnc(-c2ccc3[nH]cc(-c4ncc(C(=O)NC5CC5)s4)c3c2)o1 [Example 275, N-cyclopropyl-2-(5-(5-((1-methylethyl)amino)-1,3,4-oxadiazol-2-yl)-1H-indol-3-yl)-1,3-thiazole-5-carboxamide] | IC50 [2, 4]: 0.705 µM
0.159 | 0.106 |  | COc1nc(-c2c[nH]c3ccc(-c4nnc(NC(C)C)o4)cc23)nc(C)c1F [Example 260, 5-(3-(5-fluoro-4-methoxy-6-methyl-2-pyrimidinyl)-1H-indol-5-yl)-N-(1-methylethyl)-1,3,4-oxadiazol-2-amine] | 
 |  | 0.268 | CC(C)Nc1nnc(-c2ccc3[nH]cc(-c4ccc(C(N)=O)cn4)c3c2)o1 [Example 303, 6-(5-(5-((1-methylethyl)amino)-1,3,4-oxadiazol-2-yl)-1H-indol-3-yl)-3-pyridinecarboxamide] | 
0.389 |  |  | CC(C)Cn1cc(-c2c[nH]c3ccc(-c4nnc(N)o4)nc23)cn1 [Example 127, 5-(3-(1-(2-methylpropyl)-1H-pyrazol-4-yl)-1H-pyrrolo[3,2-b]pyridin-5-yl)-1,3,4-oxadiazol-2-amine] | 
0.00579 | 0.021 |  | CCc1nc(-c2c[nH]c3ccc(-c4nnc(NC(C)(C)C)o4)cc23)ncc1F [Example 57, N-tert-butyl-5-(3-(4-ethyl-5-fluoropyrimidin-2-yl)-1H-indol-5-yl)-1,3,4-oxadiazol-2-amine] | 
0.00253 |  |  | CC(C)(C)Nc1nnc(-c2ccc3[nH]cc(-c4ncc(F)c(C5CC5)n4)c3c2)o1 [Example 56, N-tert-butyl-5-(3-(4-cyclopropyl-5-fluoropyrimidin-2-yl)-1H-indol-5-yl)-1,3,4-oxadiazol-2-amine] | 
0.335 |  |  | CC(C)Oc1cccc(-c2c[nH]c3ccc(-c4nsc(N)n4)cc23)n1 [Example 65, 3-(3-(6-isopropoxypyridin-2-yl)-1H-indol-5-yl)-1,2,4-thiadiazol-5-amine] | 
0.0695 |  |  | CNc1nc(-c2ccc3[nH]cc(-c4cncc(OC(C)C)n4)c3c2)no1 [Example 72, 3-(3-(6-isopropoxypyrazin-2-yl)-1H-indol-5-yl)-N-methyl-1,2,4-oxadiazol-5-amine] | 
 |  | 0.664 | CC(C)Nc1nnc(-c2ccc3[nH]cc(-c4cccc(C(=O)NC5CC5)n4)c3c2)o1 [Example 294, N-cyclopropyl-6-(5-(5-((1-methylethyl)amino)-1,3,4-oxadiazol-2-yl)-1H-indol-3-yl)-2-pyridinecarboxamide] | 

SMILES | IC50 [1, 3] [µM] | IC50 ([2]; Pim-2 enzyme assay) [µM] | IC50 [1, 5] [µM] | also measured
CC(C)Oc1cccc(-c2c[nH]c3ccc(-c4noc(N)n4)cc23)n1 [Example 69, 3-(3-(6-isopropoxypyridin-2-yl)-1H-indol-5-yl)-1,2,4-oxadiazol-5-amine] | 0.241 | 0.668 |  | 
CNC(=O)c1cccc(-c2c[nH]c3ccc(-c4nnc(NC(C)C)o4)cc23)n1 [Example 285, 6-(5-(5-(isopropylamino)-1,3,4-oxadiazol-2-yl)-1H-indol-3-yl)-N-methylpicolinamide] |  |  | 0.401 | IC50 [2, 4]: 0.76 µM
CC(C)Oc1cccc(-c2c[nH]c3ccc(-c4nc(N)ns4)cc23)n1 [Example 63, 5-(3-(6-isopropoxypyridin-2-yl)-1H-indol-5-yl)-1,2,4-thiadiazol-3-amine] | 0.551 | 0.4 |  | 
CC(C)Nc1nnc(-c2ccc3[nH]cc(-c4nc(C(=O)O)cc(C5CC5)n4)c3c2)o1 [Example 47, 6-cyclopropyl-2-(5-(5-(isopropylamino)-1,3,4-oxadiazol-2-yl)-1H-indol-3-yl)pyrimidine-4-carboxylic acid] | 0.0201 | 0.00116 |  | 
CC(C)Oc1cccc(-c2c[nH]c3ccc(-c4nc(N)no4)cc23)n1 [Example 68, 5-(3-(6-isopropoxypyridin-2-yl)-1H-indol-5-yl)-1,2,4-oxadiazol-3-amine] | 0.0427 |  |  | IC50 [2]: 0.0797 µM
CC(C)Nc1nnc(-c2ccc3[nH]cc(-c4nccc(C(=O)NC5CC5)n4)c3c2)o1 [Example 283, N-cyclopropyl-2-(5-(5-((1-methylethyl)amino)-1,3,4-oxadiazol-2-yl)-1H-indol-3-yl)-4-pyrimidinecarboxamide 2,2,2-trifluoroacetate] |  |  | 0.517 | IC50 [2, 4]: 0.453 µM
CS(=O)(=O)c1ccc(-c2c[nH]c3ccc(-c4nnc(N)o4)cc23)nc1 [Example 284, 5-(3-(5-(methylsulfonyl)-2-pyridinyl)-1H-indol-5-yl)-1,3,4-oxadiazol-2-amine 2,2,2-trifluoroacetate] |  |  | 0.515 | IC50 [2]: 0.555 µM
CC(C)(C)Nc1nnc(-c2ccc3[nH]cc(-c4nccc(C5CC5)n4)c3c2)o1 [Example 54, N-tert-butyl-5-(3-(4-cyclopropylpyrimidin-2-yl)-1H-indol-5-yl)-1,3,4-oxadiazol-2-amine 2,2,2-trifluoroacetate] | 0.00158 |  |  | IC50 [2]: 0.00239 µM
CNC(=O)c1ccc(-c2c[nH]c3ccc(-c4nnc(NC(C)C)o4)cc23)nc1 [Example 295, N-methyl-6-(5-(5-((1-methylethyl)amino)-1,3,4-oxadiazol-2-yl)-1H-indol-3-yl)-3-pyridinecarboxamide] |  |  | 0.578 | 
